Test results published in publication PMC9570995, “Design, Synthesis, and Biological Evaluation of Novel Dihydropyridine and Pyridine Analogs as Potent Human Tissue Nonspecific Alkaline Phosphatase Inhibitors with Anticancer Activity: ROS and DNA Damage-Induced Apoptosis” (Molecules, 2022).

Columns and labels:
Assay type in all cases: cell-based
[1] = test system: Breast Cancer (MCF-7) Cells; assay: MTT cell viability assay, MCF-7; conditions: Homo sapiens
Description: An MTT assay was used to determine the viability of the cells under examination in the desired medium. The mitochondrial dehydrogenase enzyme of the viable cells has a key role in the conversion of the yellow water-soluble substrate 3-(4,5-dimethylthiazol-2-y1)-2,5 diphenyl tetrazolium bromide (MTT) into a dark blue formazan product that is insoluble in water. The anticancer activity of the novel synthetic derivatives (4a–4k) was investigated through an MTT assay, with small modifications following the already published protocols against cancer cell lines (HeLa and MCF-7), using cisplatin as a reference drug. The cytotoxic effect of the tested compounds at 100 µM concentration was determined and represented as the percent growth inhibition compared with the untreated control cells. The first series comprised dihydropyridines analogous from 4a–4f with various substitution patterns on the phenyl ring. […] It is presumed that the 1-naphthyl containing compound 4c was locked in a configuration that is not favorable for an interaction with amino acid residues.
The anti-proliferative activity of the synthesized compounds was determined in MCF-7 and HeLa cells by an MTT cell viability assay, as described earlier. Briefly, we seeded 1 × 10^4 cells/well in a sterile 96-well culture microtiter plate and incubated them in a 5% CO2 incubator at 37 °C for 24 h. […] After 24 h, the cells were treated with 0.2 mg/mL of MTT reagent for 4 h. We added 10% acidified SDS (sodium dodecyl sulfate) solubilizing solution in propanol (1:1) to solubilize the formazan crystals. After 30 min at 37 °C, the plate was placed on a gyratory shaker to completely dissolve the formazan crystals. The plate was placed on a microplate reader to measure the optical density at 570 nm. The IC50 values were calculated from three independent experiments as previously reported.

normal BHK-21 cells = assay: MTT assay on normal cells; conditions: Mesocricetus auratus, rapidly growing non-cancerous cells
HeLa cells = assay: Fluorescence microscopy of cytotoxic and pro-apoptotic effect (PI and DAPI staining)
Description: Change in the cellular morphology, initially characterized by cell shrinkage, chromatin condensation, and degradation of the nuclear and plasma membranes, was mostly observed in the programmed cell death. The propidium iodide (PI) staining agent is a fluorescent molecule that penetrates the cancerous cells through ruptured membranes and binds with DNA. Similarly, the subsequent image offers red nuclei contrary to the dark background that indicates the counts of dead cells. On the other hand, viable cells have an intact cell membrane that resists the penetration of the staining agent (PI). Herein, the anticancer potential of the highly functionalized small dihydropyridine scaffold 4d was noticed through the apoptosis induction pathway based on various mechanisms. […] The detachment of cells and appearance of yellow intense fluorescence images on the dark background specify the distribution of PI into the dying cells in a dose-reliant mode.
The apoptotic feature, particularly the condensation of nuclear material, was also observed through the fluorescence microscopic evaluation of compound 4d-treated HeLa cells using 4′,6-diamidino-2-phenylindole (DAPI) as a staining agent. […] The fluorescence intensity enhances many folds upon binding with DNA. The extent of damage in the compound-treated cells was easily measured through an increase in the fluorescence emission intensity. […]

IC50 ([1]; MCF7, unit given, read-out: Breast Cancer (MCF-7) Cells IC50 Values ± SEM): 38.7 ± 2.31 µM
SMILES: N#CC1=C(N)N(Cc2ccccc2)C(N)=C(C#N)C1c1ccc2ccccc2c1 [Compound 4d, 2,6-Diamino-1-benzyl-4-(naphthalen-2-yl)-1,4-dihydropyridine-3,5-dicarbonitrile]
inhibition at 100 µM ([1]; MCF7, 100 µM, 24 h): 85.8% | IC50 (normal BHK-21 cells): 71.1 ± 3.18 µM | IC50 (HeLa cells; Homo sapiens, read-out: IC50 (cytotoxic potential, fluorescence microscopy with PI staining)): 28.3 µM | morphological change of treated cells (DAPI staining) (HeLa cells; IC50 and 2 × IC50): cellular shrinkage and nuclear condensation in a dose-dependent manner
